Measurements from paper PMC5489165, “Identification of benzazole compounds that induce HIV-1 transcription” (PLoS ONE, 2017).
Where two headings read alike, the source gives them in different places.

Assays:
[1] = Cytotoxicity assay in SupT1 cells (ATP, CellTiter-Glo); assay type: cell-based; details: human; for selectivity ratio at 72 h: read-out: Selective window, CC50 versus EC2X
Procedure: SupT1 cells were plated at 100,000 per well in 96-well, white-walled plates with serial dilutions of test compound in a total volume of 100 μl RPMI-1640 medium containing 10% FBS and 0.5% DMSO. PBMCs were plated similarly at 50,000 cells/well and stimulated by addition of 40 μg/ml PHA and 80 ng/ml interleukin-2 (IL-2). Cells were incubated for 72 h at 37°C, 5% CO2. ATP was quantified using the CellTiter-Glo Luminescent Cell Viability Assay (Promega, Madison, WI) on a ViewLux microplate imager (Perkin Elmer, Waltham, MA). Percent cytotoxicity was determined relative to vehicle-only treated wells.

[2] = system: HIV-1 Gag (p24) in ACH-2 cells; assay: Intracellular staining for HIV Gag in ACH-2 cells (flow cytometry); assay type: cell-based; details: for Intracellular Gag, percentage of positive cells: 16 h, 30 μM Cmpd 1 or Cmpd 2, 10 μM SAHA, 1 mM JQ1 or 10 ng/ml PMA, single experiment (Fig 4A)
Procedure: ACH-2 cells were treated as indicated and HIV-1 expression was monitored by intracellular staining for p24. Approximately, 1 × 10^6 cells were collected and washed in PBS before fixing by resuspending in 100 μl of BD Cytofix/Cytoperm (BD Biosciences, San Jose, CA) at 4°C for at least 20 min. Cells were then harvested by centrifugation and resuspended in 100 μl BD PermWash (50 mM NH4Cl, 5 mM EDTA, 0.1% saponin, 0.5% BSA, PBS and 1 mg/ml of anti-HIV-Gag PE (Clone KC57, Beckman Coulter, Brea CA). Cells were stained for 30 min, washed with the PermWash, and resuspended in FACS buffer (2 mM EDTA, 0.5% BSA, 1% paraformaldehyde in PBS). Cells were analyzed by flow cytometry using a FACSCalibur instrument (BD Biosciences). Flow cytometry was performed at the Boston University School of Medicine flow cytometry core.
Fig 4 Induction of HIV-1 expressing cells following treatment with latency reversing agents. ACH-2 cells were not treated or treated with a final concentration of 30 μM Cmpd 1 or Cmpd 2, 10 μM SAHA, 1 mM JQ1 or 10 ng/ml PMA for 16 h. Cells were stained using anti-HIV-Gag-PE and analyzed by flow cytometry. Numbers within the profiles represent the percentage of positive cells. These profiles are from a single experiment. B) Data from four independent experiments. Y-axis is mean of % p24 positive cells. * Cmpd 1 p-value […] compared to other treatments using a two-tailed t-test. TEXT PRINTED IN THE PICTURE: (A) Cmpd 1: Intracellular Gag: 65.6% | (A) Cmpd 2: Intracellular Gag: 33.9% | (A) SAHA: Intracellular Gag: 23.0% | (A) JQ1: Intracellular Gag: 16.7% | (A) PMA: Intracellular Gag: 94.2%

Caco-2 cells = assay: Caco-2 assay; assay type: in vitro ADME, human; details: 10 μM, 1 h, top to bottom chamber
Procedure: Caco-2 cells obtained from ATCC were plated on filters of a 24-well Boyden chamber and allowed to replicate for five days. Prior to initiating a study, the integrity of the cell layer was assessed by measuring the transepithelial electrical resistance (TEER) values. […] After 1h, medium was removed from the bottom chamber. After completion of the assay, the integrity of the cell layer was measured by transfer of the fluorescent dye, Lucifer yellow, across the cell layer. Samples taken from the apical chamber at the start of the study and from the basal chamber at the end of the study were assessed for drug levels using LC-MS/MS technology and used to calculate the apparent permeability (Papp).

[3] = system: NF-κB response element reporter in Jurkat cells; assay: NF-κB-responsive Fluc reporter in Jurkat cells; assay type: cell-based, human; details: stably-transfected Jurkat cells, 4 h
Source text: The vector pGL4.32[luc2P/NF-κB-RE/Hygro] was purchased from Promega (Madison, WI), encoding 5 copies of a NF-κB response element driving expression of synthetic firefly luciferase gene, luc2, including a PEST destabilization sequence. Jurkat cells were transfected with this vector using a Gene Pulser® II (Biorad, Hercules, CA) with a 0.4 cm gap cuvette at 0.2 kV and 960 μF. Cells were allowed to recover for three days in RPMI-1640 with 10% FBS and 1% penicillin/streptomycin before selection with 200 μg/ml Hygromycin B for one month. Pooled, stably-transfected cells were plated at 50,000/well in 96-well plates and treated with test compounds in a final concentration of 0.5% DMSO for 4 h at 37°C. Luciferase activity was determined by adding one volume 2× steadylite plus reagent (Perkin Elmer, Waltham, MA) and reading on a ViewLux microplate imager.

IL-2 secretion by PBMCs = assay: IL-2 ELISA in PBMCs; assay type: cell-based, human; details: 24 h
Procedure: Cryopreserved PBMCs from a single donor were thawed in RPMI-1640 plus 10% FBS. PBMCs were plated at 5×10^4/well in 96-well plates and compound was added with a final concentration of 0.5% DMSO. Plates were incubated for 24 h at 37°C, 5% CO2. Interleukin-2 was quantified using Human IL-2 DuoSet ELISA (R&D Systems, Minneapolis, MN). Raw data were converted to ng/ml IL-2 using a standard curve obtained in parallel.

[4] = Protein binding, mouse plasma (ultrafiltration); assay type: in vitro ADME; details: mouse, plasma, pH 7.4
Procedure: Binding of test compound to plasma proteins was estimated by incubation of test compounds with mouse or human plasma. Human plasma was obtained from BioreclamationIVT (Westbury, NY). […] After a 15 min incubation at 37°C, triplicate aliquots of the incubation mixtures were transferred to a Millipore Multiscreen Ultracel-10 filter plate (10 kDa molecular mass cut off, EMD Millipore, Billerica, MA). The plate was centrifuged for 60 min at 3000 × g and 37°C. After centrifugation, aliquots of both the ultrafiltrates as well as the incubation mixtures prior to ultrafiltration were analyzed by LC-MS/MS to quantify the concentrations of test compound and reference compounds.

[5] = Microsome assay, mouse liver microsomes; assay type: in vitro ADME
Procedure: Human and mouse liver microsomes were obtained from XenoTech, LLC (Kansas City, KS). The reaction mixture was composed of liver microsomes (0.5 mg/mL), 20 mM Tris-HCl pH 7.4, 2.5 mM MgCl2, and an NADPH generating system (0.1 mM NADP, 1.2 mM glucose-6-phosphate and 0.3 units/ml glucose-6-phophate dehydrogenase). […] Test compounds were added to the microsome reaction and loss of parent molecule was monitored after 1 h by LC/MS/MS.

[6] = SupT1 cells, ATP quantification, 72 h, read-out: CC50, SupT1

## Nc1ccc2[nH]c(-c3ccc(-c4nc5ccc(N)cc5o4)cc3)nc2c1 [Compound 2]
[1]; [6]
  CC50 at 72 h: > 100 µM
[1]; SupT1 cells
  selectivity ratio at 72 h: ≥ 3
[2]
  Intracellular Gag, percentage of positive cells: 33.9%
Caco-2 cells
  Caco-2 Papp: 4.8 10^−6 cm/s
Caco-2 cells; listed as compound 2
  Caco-2 Papp: 38 10^−6 cm/s
[3]
  Induction of NF-κB driven reporter (in words): Neither Compound 1 nor Compound 2 induced
IL-2 secretion by PBMCs
  IL-2 secretion by PBMCs (in words): neither Compound 1 nor 2 increased secretion of IL-2
[4]
  fraction unbound at 15 min, 10 μM: < 0.025
[5]
  MLM stability (% loss of parent compound at 1 h): 53%

## Nc1ccc2[nH]c(-c3ccc(-c4nc5cc(N)ccc5o4)cc3)nc2c1 [Compound 1, 2-(4-(5-amino-1H-benzimidazol-2-yl)phenyl)benzoxazol-5-amine]
[1]; [6]
  CC50 at 72 h: 5.2 ± 1.1 µM
[1]; SupT1 cells, with regards to respective EC2X (SEAP reporter)
  selectivity ratio at 72 h: ≥ 3
[1]; T cells (SupT1) and PBMCs, read-out: CC50 across cytotoxicity assays
  CC50 at 72 h: 5 to 18 µM
[2]
  Intracellular Gag, percentage of positive cells: 65.6%
[2]; SAHA or JQ1 used at active concentrations
  Fold more ACH-2 cells induced than with SAHA or JQ1: approximately 2 fold
[2]; text statement (Fig 4)
  ACH-2 cells in which HIV-1 expression was induced: over 70%
Caco-2 cells
  Caco-2 Papp: 38 10^−6 cm/s
Caco-2 cells; listed as compound 1
  Caco-2 Papp: 4.8 10^−6 cm/s
[3]
  Induction of NF-κB driven reporter (in words): Neither Compound 1 nor Compound 2 induced
IL-2 secretion by PBMCs
  IL-2 secretion by PBMCs (in words): neither Compound 1 nor 2 increased secretion of IL-2
[4]
  fraction unbound at 15 min, 10 μM: < 0.03
[5]
  MLM stability (% loss of parent compound at 1 h): 28%
